According to publication PMC4829233, “Identification of Novel Chemical Scaffolds Inhibiting Trypanothione Synthetase from Pathogenic Trypanosomatids” (PLoS Neglected Tropical Diseases, 2016):
Read-outs that look alike come from different tables or passages of the source.

Tests used:
[1] = test system: bloodstream Trypanosoma brucei brucei; assay: Proliferation/cytotoxicity assay, infective T. b. brucei; assay type: cell-based; conditions: 24 h, read-out: T. b. Brucei EC50
[2] = biological target: TcTryS (Trypanosoma cruzi trypanothione synthetase) (Trypanosoma cruzi, UniProt Q9GT49); assay: biochemical; assay type: biochemical; conditions: for remaining activity at 30 µM: read-out: TcTryS Activity ± 2σn-1 (%); for inhibition at 30 µM: read-out: % TcTryS inhibition ± 2σn-1
[3] = biological target: LiTryS (Leishmania infantum trypanothione synthetase) (Leishmania infantum, UniProt A4I2Z3); assay: biochemical; assay type: biochemical; conditions: for activity at 30 µM: read-out: LiTryS Activity ± 2σn-1 (%); for inhibition at 30 µM: read-out: % LiTryS inhibition ± 2σn-1; for IC50: read-out: LiTryS IC50 (estimated)
[4] = biological target: TbTryS (Trypanosoma brucei trypanothione synthetase) (Trypanosoma brucei brucei, UniProt Q8IEX1); assay: biochemical; conditions: for activity at 30 µM: read-out: TbTryS Activity ± 2σn-1 (%); for inhibition at 30 µM: read-out: % TbTryS inhibition ± 2σn-1
TbTryS (Trypanosoma brucei trypanothione synthetase), sequence (Q8IEX1 1-627): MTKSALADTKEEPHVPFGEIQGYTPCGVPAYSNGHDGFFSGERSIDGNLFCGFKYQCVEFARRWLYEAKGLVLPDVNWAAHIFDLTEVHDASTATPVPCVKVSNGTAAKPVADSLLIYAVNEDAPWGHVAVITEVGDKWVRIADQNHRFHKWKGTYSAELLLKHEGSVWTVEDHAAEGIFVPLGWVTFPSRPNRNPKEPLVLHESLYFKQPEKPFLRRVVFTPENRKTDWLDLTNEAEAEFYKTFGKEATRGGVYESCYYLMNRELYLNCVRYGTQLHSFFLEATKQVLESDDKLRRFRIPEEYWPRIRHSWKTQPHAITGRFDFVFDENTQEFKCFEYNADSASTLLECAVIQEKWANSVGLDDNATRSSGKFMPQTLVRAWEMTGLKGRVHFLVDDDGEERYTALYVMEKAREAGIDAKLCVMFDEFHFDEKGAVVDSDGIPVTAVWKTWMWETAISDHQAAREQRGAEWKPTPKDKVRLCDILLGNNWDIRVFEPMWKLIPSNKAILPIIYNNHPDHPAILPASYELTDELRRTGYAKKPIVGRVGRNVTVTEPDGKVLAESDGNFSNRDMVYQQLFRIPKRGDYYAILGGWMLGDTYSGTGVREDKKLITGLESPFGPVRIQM

LiTryS (Leishmania infantum trypanothione synthetase), sequence (A4I2Z3 1-652): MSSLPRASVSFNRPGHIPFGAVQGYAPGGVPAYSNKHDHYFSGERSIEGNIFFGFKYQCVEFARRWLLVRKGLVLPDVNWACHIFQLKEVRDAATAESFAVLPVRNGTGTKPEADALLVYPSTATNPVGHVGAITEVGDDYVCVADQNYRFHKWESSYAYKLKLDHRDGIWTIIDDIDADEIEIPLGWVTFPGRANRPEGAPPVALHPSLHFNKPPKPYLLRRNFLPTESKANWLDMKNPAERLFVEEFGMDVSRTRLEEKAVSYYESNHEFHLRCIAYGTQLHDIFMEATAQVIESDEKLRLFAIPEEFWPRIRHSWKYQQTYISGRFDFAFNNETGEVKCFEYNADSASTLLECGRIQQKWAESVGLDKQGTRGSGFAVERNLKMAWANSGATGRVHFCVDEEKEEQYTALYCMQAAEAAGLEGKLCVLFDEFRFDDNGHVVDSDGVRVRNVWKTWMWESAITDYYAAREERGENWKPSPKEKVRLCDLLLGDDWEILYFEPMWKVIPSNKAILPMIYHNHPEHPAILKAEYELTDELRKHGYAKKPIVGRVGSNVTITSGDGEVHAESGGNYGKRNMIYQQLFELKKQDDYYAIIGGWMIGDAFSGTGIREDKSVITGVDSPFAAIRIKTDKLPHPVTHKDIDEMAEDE
TcTryS (Trypanosoma cruzi trypanothione synthetase), sequence (Q9GT49 whole entry): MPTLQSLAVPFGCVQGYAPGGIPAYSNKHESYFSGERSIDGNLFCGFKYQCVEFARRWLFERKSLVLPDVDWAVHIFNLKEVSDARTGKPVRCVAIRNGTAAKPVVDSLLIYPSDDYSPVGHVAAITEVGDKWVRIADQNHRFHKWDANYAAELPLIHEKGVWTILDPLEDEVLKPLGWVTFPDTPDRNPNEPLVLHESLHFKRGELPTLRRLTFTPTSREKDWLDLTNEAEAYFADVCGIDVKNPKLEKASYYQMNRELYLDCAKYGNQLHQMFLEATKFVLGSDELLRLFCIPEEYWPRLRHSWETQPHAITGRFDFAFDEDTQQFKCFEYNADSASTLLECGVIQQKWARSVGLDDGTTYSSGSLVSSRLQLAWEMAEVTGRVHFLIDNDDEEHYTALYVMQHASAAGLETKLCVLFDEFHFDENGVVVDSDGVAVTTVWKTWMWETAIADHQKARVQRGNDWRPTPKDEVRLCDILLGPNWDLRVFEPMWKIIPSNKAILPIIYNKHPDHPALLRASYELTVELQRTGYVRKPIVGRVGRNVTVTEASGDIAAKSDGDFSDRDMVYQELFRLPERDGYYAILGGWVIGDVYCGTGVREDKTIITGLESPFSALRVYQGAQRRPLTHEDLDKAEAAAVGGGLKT

| Compound | TcTryS Activity ± 2σn-1 (%) [2] | LiTryS Activity ± 2σn-1 (%) [3] | TbTryS Activity ± 2σn-1 (%) [4] | also measured |
| --- | --- | --- | --- | --- |
| CC1CS(=O)(=O)CCN1/N=C/c1ccc([N+](=O)[O-])o1 (centres unmarked) [nifurtimox, reference compound] |  |  |  | EC50 ([1]; bloodstream T. b. brucei): 5 µM |
| c1ccc(CNCCCCCCCCCCCCNCc2ccccc2)cc1 [EAP1-9] | 87.3 ± 5.4; 4% | 89.6 ± 9.4; 3% | 74.9 ± 4.1; 4% |  |
| COc1ccc(C2C(C(=O)c3ccc4c(c3)OCCO4)=C(O)C(=O)N2c2nc3ccccc3s2)cc1 (centres unmarked) [ADPKN165] | 107.1 ± 4.5; 4% |  |  | remaining activity at 30 µM [2]: 107 ± 4.5%; activity at 30 µM [3]: 83.5 ± 6%; activity at 30 µM [4]: 166% |
| [O-][n+]1onc2cc(F)ccc21 [Compound J31] | 118.8 ± 6.1; 4 (1.00) % |  |  | remaining activity at 30 µM [2]: 119%; activity at 30 µM [3]: 84.1 ± 0.001%; activity at 30 µM [4]: 96.2 ± 3.7% |
| CC(C)(C)NC(=O)Nc1nc2nc(N)ncc2cc1-c1ccc2ccccc2c1 [ZEA10] |  |  |  | inhibition at 30 µM [2]: 32.3 ± 4%; remaining activity at 30 µM [2]: 67.7%; inhibition at 30 µM [3]: 32.1 ± 6.4%; activity at 30 µM [3]: 67.9%; IC50 [4]: ~30 µM; inhibition at 30 µM [4]: 50%; EC50 [1]: 0.28 ± 0.08 µM |
| [O-][n+]1onc2c(Cl)cc(Cl)cc21 [Compound J26] | 95.8 ± 1.1; 3% | 88.0 ± 1.0; 3% | 104.9 ± 5.7; 3% |  |
| O=C(C1=C(O)C(=O)N(c2nc3ccc(Cl)cc3s2)C1c1ccc(O)cc1)c1ccc2c(c1)OCCO2 (centres unmarked) [AD83] | 93.6 ± 4.7; 3 (0.93) % | 83.9 ± 3.8; 4% | 106.9 ± 4.7; 3% |  |
| COc1ccc2nc(N3C(=O)C(O)=C(C(=O)c4ccc5c(c4)OCCO5)C3c3ccc(O)c(OC)c3)sc2c1 (centres unmarked) [ADMRC156] | 102.2 ± 8.8; 4% | 79.4 ± 4.6; 4% | 108.1 ± 6.5; 3% |  |
| [O-][n+]1onc2cc(C(F)(F)F)ccc21 [Compound J25] | 81.8 ± 2.2; 3% | 110.7 ± 2.4; 3% | 98.4 ± 4.2; 3% |  |
| COc1cc(CNCCCNCc2ccc(OCc3ccccc3)c(OC)c2)ccc1OCc1ccccc1 [APC1-79] | 63.3 ± 2.7; 2% | 72.1 ± 3.4; 4 (1.27) % | 66.0 ± 2.9; 4% |  |
| COc1ccc(C(=O)C2=C(O)C(=O)N(c3nc4ccc(Cl)cc4s3)C2c2ccc(F)cc2)cc1OC (centres unmarked) [ADPKN164] | 99.6 ± 5.7; 4% |  |  | remaining activity at 30 µM [2]: 99.6 ± 5.7%; inhibition at 30 µM [3]: ~35%; activity at 30 µM [3]: 66 ± 3.4%; TbTryS Activity ± 2σn-1 (%) ([4]; 30 µM): 123.2 ± 7.0; 4 (0.83) %; activity at 30 µM [4]: 123% |
| COc1cc(CNCCCCNCc2ccc(OCc3ccccc3)c(OC)c2)ccc1OCc1ccccc1 [APC1-89] |  |  |  | inhibition at 30 µM [2]: 25.6 ± 1.4%; remaining activity at 30 µM [2]: 74.4%; inhibition at 30 µM [3]: 23.4%; activity at 30 µM [3]: 76.6%; IC50 [4]: ~30 µM; inhibition at 30 µM [4]: 50.9%; EC50 [1]: 0.061 ± 0.001 µM |
| c1ccc(CNCCCCCCCCCCNCc2ccccc2)cc1 [APC1-113] | 88.5 ± 6.6; 3% | 86.9 ± 6.3; 3% | 89.5 ± 3.6; 3% |  |
| COc1cc(CNCCCCNCc2ccc(O)c(OC)c2)ccc1O [APC1-93] | 94.4 ± 2.4; 4% | 101.3 ± 8.7. 4% | 94.0 ± 9.1; 5% |  |
| Clc1ccc(CNCCCCCCCCCCCCNCc2ccc(Cl)cc2)cc1 [EAP1-67] | 76.2 ± 6.6; 4 (1.34) % |  | 57.6 ± 1.6; 4 (1.33) % | % TcTryS inhibition ± 2σn-1 [2]: 23.8 ± 6.6%; (1.34); IC50 [3]: ~30 µM; % TbTryS inhibition ± 2σn-1 [4]: 42.4 ± 1.6%; (1.33) |
| Brc1ccc(CNCCCCCCCCCCNCc2ccc(Br)cc2)cc1 [EAP1-57] | 81.2 ± 4.2; 3% | 75.2 ± 4.5; 3% | 62.6 ± 3.6; 3 (1.26) % |  |
| Cc1ccc2nc(N3C(=O)C(O)=C(C(=O)c4ccc5c(c4)OCCO5)C3c3ccc(F)cc3)sc2c1 (centres unmarked) [ADMRC154] | 93.9 ± 2.1; 3% | 64.7 ± 3.7; 4% | 110.3 ± 8.7 ; 12% | % LiTryS inhibition ± 2σn-1 [3]: ~35% |
| COc1ccc(C2C(C(=O)c3ccc4c(c3)OCCO4)=C(O)C(=O)N2c2nc3ccc(OC)cc3s2)cc1 (centres unmarked) [ADPKN160] | 97.6 ± 3.7; 4% |  |  | remaining activity at 30 µM [2]: 97.6 ± 3.7%; activity at 30 µM [3]: 77.9 ± 3.6%; TbTryS Activity ± 2σn-1 (%) ([4]; 30 µM): 116.4 ± 4.2; 4 (0.87) %; activity at 30 µM [4]: 116% |
| [O-][n+]1onc2cc(Cl)c(Cl)cc21 [Compound J13] | 84.9 ± 4.4; 3% | 102.2 ± 7.8; 3% | 88.9 ± 2.7; 3% |  |
| COc1ccc2c(c1)no[n+]2[O-] [Compound J14] | 77.2 ± 4.4; 4% | 96.1 ± 7.3; 4% | 93.1 ± 5.6; 4% |  |
| c1ccc(CNCCCCCCCCNCc2ccccc2)cc1 [EAP1-5 (I)] | 82.8 ± 5.2; 3% | 62.8 ± 3.9; 4% | 78.3 ± 3.6; 4% |  |

| Compound | TcTryS Activity ± 2σn-1 (%) [2] | LiTryS Activity ± 2σn-1 (%) [3] | TbTryS Activity ± 2σn-1 (%) [4] | also measured |
| --- | --- | --- | --- | --- |
| Brc1ccc(CNCCCCCCCCNCc2ccc(Br)cc2)cc1 [EAP1-46] | 93.7 ± 7.6; 3% | 61.8 ± 3.9; 3% | 73.4 ± 1.7; 3% |  |
| COc1ccc(CNCCCCCCCCCCNCc2ccc(OC)cc2)cc1 [APC1-115] | 76.1 ± 2.5; 4% | 79.8 ± 2.3; 3% | 69.0 ± 6.3; 3% |  |
| Cc1ccc(CNCCCCCCCCCCNCc2ccc(C)cc2)cc1 [EAP1-55] | 68.6 ± 3.9; 2% | 71.5 ± 5.8; 4% | 61.8 ± 4.8; 3% |  |
| COc1ccc(C2C(C(=O)c3ccc(OC)c(OC)c3)=C(O)C(=O)N2c2nc3ccc(Cl)cc3s2)cc1 (centres unmarked) [ADPKN163] | 113.6 ± 3.4; 4% | 82.3 ± 7.7; 3% | 88.0 ± 5.0; 4% |  |
| Cc1ccc(CNCCCCCCCCNCc2ccc(C)cc2)cc1 [EAP1-45] | 92.3 ± 4.5; 4% | 91.9 ± 2.7; 3% | 78.4 ± 0.6; 3% |  |
| c1ccc(COc2ccc(CNCCCCNCc3ccc(OCc4ccccc4)cc3)cc2)cc1 [APC1-87] |  |  |  | inhibition at 30 µM [2]: 26.6 ± 4.1%; remaining activity at 30 µM [2]: 73.4%; IC50 [3]: ~30 µM; inhibition at 30 µM [4]: 37.9 ± 4%; activity at 30 µM [4]: 62.1% |
| [O-][n+]1onc2cc(F)c(F)cc21 [Compound J40] | 87.4 ± 1.6; 3% | 92.9 ± 5.1; 4% | 85.0 ± 1.4; 2% |  |
| O=C(C1=C(O)C(=O)N(c2nc3ccc(Cl)cc3s2)C1c1ccccc1)c1ccc2c(c1)OCCO2 (centres unmarked) [ADMRC159] | 97.2 ± 7.8; 2% | 64.1 ± 2.7; 4% | 91.7 ± 6.5; 3% | % LiTryS inhibition ± 2σn-1 [3]: ~35% |
| CCCCn1c(=O)[nH]c(=O)c2c1nc(CSc1cccc(C(F)(F)F)c1)n2C [Compound C3, reference compound] | 91.1 ± 4.6; 4% | 84.5 ± 3.3; 3% | 92.7 ± 3.6; 3% |  |
| Cc1ccc2nc(N3C(=O)C(O)=C(C(=O)c4ccc5c(c4)OCCO5)C3c3ccc(O)cc3)sc2c1 (centres unmarked) [AD82] | 103.4 ± 6.4; 2% | 86.2 ± 5.8; 4% | 107.7 ± 6.4; 4% |  |
| [O-][n+]1onc2cc(Cl)ccc21 [Compound J12] | 63.7 ± 0.5; 4% | 93.8 ± 3.9; 4% | 92.7 ± 2.7; 3% |  |
| COc1cc(CNCCCCCCNCc2ccc(O)c(OC)c2)ccc1O [APC1-121] | 92.9 ± 5.0; 4% | 95.0 ± 7.8; 4% | 91.1 ± 4.8; 3% |  |
| COc1cc(C2C(C(=O)c3ccc4c(c3)OCCO4)=C(O)C(=O)N2c2nc3ccc(C)cc3s2)ccc1O (centres unmarked) [ADMRC152] | 103.1 ± 6.2; 3% | 92.5 ± 6.6; 4% | 115.4 ± 4.3; 3% |  |
| O=C(C1=C(O)C(=O)N(c2nc3ccccc3s2)C1c1ccc(F)cc1)c1ccc2c(c1)OCCO2 (centres unmarked) [ADPKN161] | 90.8 ± 5.8; 4% |  |  | remaining activity at 30 µM [2]: 90.8 ± 5.8%; activity at 30 µM [3]: 83.5 ± 9.2%; activity at 30 µM [4]: 127% |
| COc1ccc(CNCCCCCCNCc2ccc(OC)cc2)cc1 [APC1-98] | 94.2 ± 5.5; 2% | 79.6 ± 5.6; 4% | 72.8 ± 3.7; 4% |  |
| Clc1ccc(CNCCCCCCCCCCNCc2ccc(Cl)cc2)cc1 [EAP1-53] | 73.3 ± 2.3; 4% | 69 ± 5.7; 4 (1.305) % | 63.9 ± 4.1; 4 (1.34) % |  |
| COc1ccc(C2C(C(=O)c3ccc4c(c3)OCCO4)=C(O)C(=O)N2c2nc3ccc(C)cc3s2)cc1OC (centres unmarked) [ADMRC153] | 109.3 ± 4.7; 4% | 87.6 ± 6.0; 4% | 103.3 ± 3.2; 3% |  |
| Cc1ccc2c(c1)no[n+]2[O-] [Compound J10] | 92.6 ± 10.8; 3% | 84.7 ± 10.5; 4% | 92.7 ± 3.4; 3% |  |
| Fc1ccc(CNCCCCCCCCCCNCc2ccc(F)cc2)cc1 [EAP1-51] | 87.5 ± 4.6; 4% | 80.6 ± 2.7; 4% | 81.0 ± 7.5; 3% |  |
| c1ccc(COc2ccc(CNCCCNCc3ccc(OCc4ccccc4)cc3)cc2)cc1 [APC1-71B] | 99.0 ± 19.1; 2% | 80.8 ± 8.7; 3% | 66.0 ± 0.7; 3% |  |
